Read-outs that look alike come from different tables or passages of the source.
Tests used:
[1] = system: Human B lymphoblastoid cells (5/2); assay: B lymphoblastoid cell proliferation, 3H thymidine incorporation; assay type: cell-based
Procedure: (§1) Human B lymphoblastoid cells (e.g., cell line 5/2) were cultured in medium RPMI 1640 with 7% fetal calf serum. On the day of the assay, cells were washed and transferred to serum-free medium, RPMI 1640 supplemented with insulin, transferrin, linoleic acid, and bovine albumin (ITLB medium) as described (3). Test reagents at indicated concentrations were added to triplicate cultures of […] in 96 well plates (final volume of 200 μl/well) and cell proliferation tested 1 day (FIGS. 2B, 2C, 2D) or 3 days later (FIG. 2A) by ^3 H thymidine incorporation into DNA. […] Three additional human lymphoblastoid cell lines, Hom 2, Jest and Ducaf were tested under the conditions specified for FIG. 2A (FIG. 2D).

interleukin-2 (IL-2) = assay: IL-2 release by stimulated thymocytes, CTLL assay; assay type: cell-based, murine; settings: for IL-2 production: presence or absence of retinol or 14-HRR, previous unpublished work
Procedure: (§2) Murine thymocytes (2×10^5 /well in triplicates) were cultured in ITLB medium in 96-well plates coated with 10 μg/ml anti-CD3^ε mAB (12) as described (3). […] Cell proliferation was tested on day 3 by ^3 H thymidine incorporation into DNA. […] The results of cell proliferation assays performed at 72 hours are shown. […] CTLL proliferation was measured by ^3 H thymidine incorporation into DNA (FIG. 4D). The standard deviation of triplicate measurements were <10%.

DU145 = assay: Tumor cell sensitivity to anhydroretinol, prostate carcinoma; assay type: cell-based; settings: DU145, FIG. 6A
Excerpt: (§3) FIGS. 6A-6B show titrations for the inhibition by AR of prostate carcinoma cell lines DU145, PC-3 and LNCAP.

LNcAP = assay: as above; assay type: cell-based; settings: FIG. 6C
Excerpt: as §3

Murine thymocytes [2] = assay: Activation of murine thymocytes with anti-CD3, 3H thymidine incorporation; assay type: cell-based
Procedure: as §2

[3] = target: T1, serum retinol binding protein (RBP) (Homo sapiens, UniProt P02753); assay: Dissociation constant to serum retinol binding protein by fluorometric titration
T1 construct: Human RBP was purified from human serum; from tissue; host or cells: human serum
Procedure: (§4) Apo-protein (1-3 μM) was titrated with the appropriate all-trans-retinoid dissolved in ethanol and the titration was followed by measuring the increase in the fluorescence of the retinoids upon binding. Reaction mixtures included 150 mM NaCl, 0.1 mM DTT, and 25 mM HEPES; pH's were 7.0 and 7.4, respectively. […] Data analyses were performed as described by Cogan et al. (14). Human RBP was purified from human serum by means of a transthyretin column (15). Human CRBP I and CRABP I were gifts from Dr. W. S. Blaner (Columbia University, New York, N.Y.) and Dr. J. Napoli (SUNY, Buffalo, N.Y.), respectively.

murine B cell lymphoma = assay: Inhibition of murine B cell lymphoma by AR; assay type: cell-based
[4] = target: cellular retinoic acid binding protein (CRABP I) (Homo sapiens, UniProt P29762); assay: Dissociation constant to cellular retinoic acid binding protein by fluorometric titration; settings: no binding = no significant binding could be detected
Procedure: as §4

B lymphocyte = B lymphocyte proliferation (summary statement); assay type: cell-based
SF-9 cells = assay: Metabolites of [3H] retinol in SF-9 cells, HPLC; assay type: in vitro ADME, insect; settings: SF-9, 4 hours, FIG. 1A
Procedure: (§5) After 4 hours (FIGS. 1A and 1B) or after 16 hours (FIG. 1C) retinoids were extracted from the washed cell pellet according to the procedure of McClean et al. (16). Retinoids were separated on an analytical C18 reversed-phase column and detected with an on-line scintillation counter using the methodology described in Buck et al. (4). […] The peak eluting at minute 29 is the all-trans anhydroretinol, whereas the companion peaks at minute 27 and 28 represent cis-isomers (14). All isomers yield spectra with characteristic vibronic fine structure similar to the spectrum of all-trans AR.

SF 21 cells = assay: Metabolites of [3H] retinol in SF 21 cells, HPLC; assay type: in vitro ADME, insect; settings: SF 21, 4 hours, FIG. 1B
Procedure: as §5

resting T lymphocytes = assay: Activation of resting T lymphocytes (summary statement); assay type: cell-based
lymphocytes [5] = assay: Metabolism by lymphocytes to retinol or 14-HRR; assay type: in vitro ADME; settings: unpublished data
14-HRR synthesis = assay: Metabolic rate of 14-HRR synthesis from 3H labelled retinol; assay type: cell-based; settings: hundredfold excess of AR, data not shown
Excerpt: Therefore, competitive inhibition at the level of CRBP is a realistic possibility to explain the retinol-AR antagonism. […] By inference, a separate 14-HRR binding protein/receptor, as yet to be defined, may exist.

[6] = target: T2, cellular retinol binding protein (CRBP I) (Homo sapiens, UniProt P09455); assay: Dissociation constant to cellular retinol binding protein by fluorometric titration; settings: for Kd: fluorometric titration, 150 mM NaCl, 0.1 mM DTT, 25 mM HEPES
T2 sequence (P09455 1-135): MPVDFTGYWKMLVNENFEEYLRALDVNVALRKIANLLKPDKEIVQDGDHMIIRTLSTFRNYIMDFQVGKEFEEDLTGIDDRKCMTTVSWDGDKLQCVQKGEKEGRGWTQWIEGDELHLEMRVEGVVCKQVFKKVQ
Procedure: as §4

CTLL cell line = CTLL cell line proliferation, 3H thymidine incorporation; assay type: cell-based; settings: for CTLL proliferation: control experiments; for CTLL responsiveness to retinol and AR: with recombinant IL-2, broad dose ranges, data not shown
Procedure: as §2

[7] = system: Human lymphoblastoid 5/2 cells; assay: Metabolites of [3H] retinol in lymphoblastoid 5/2 cells, HPLC; assay type: in vitro ADME; settings: 5/2, 16 hours, FIG. 1C
Procedure: as §5

[8] = system: human lymphoblastoid cell lines; assay: B lymphoblastoid cell proliferation, 3H thymidine incorporation (Hom 2, Jest, Ducaf); assay type: cell-based; settings: several randomly selected lines, FIG. 2D
Procedure: as §1

lymphocytes [9] = assay: Cultures of lymphocytes with 14-HRR as agonist; assay type: cell-based; settings: FIGS. 2B and 4B
Murine thymocytes [10] = settings: T cell receptor-generated signals, serum-free medium, ref. (3); cited from earlier work
[11] = system: Il-2 dependent TH cell clones and T cell hybridoma; assay: Growth of Il-2 dependent TH cell clones and T cell hybridoma; assay type: cell-based; settings: previous unpublished observations
IL-2 receptor = IL-2 receptor expression of activated T cells; assay type: cell-based; settings: presence or absence of retinol or 14-HRR, previous unpublished work
[12] = system: T cell leukemia line Jurkat; assay: Jurkat T cell leukemia growth, viable cell count with trypan blue; assay type: cell-based, human
Excerpt: Viable cells in each culture were counted. On days 4 and 6 nutrients were replenished.
The T cell leukemia line Jurkat was transferred from normal, FCS-containingmedium to serum-free medium ITLB. […] Cells were counted daily differentially in the presence of trypan blue, and the total number of cells generated in each culture plotted in FIG. 3A. It is evident that cells deprived of retinol decline in numbers as compared to cells with retinol.

Chain of cellular retinoic acid binding protein (CRABP I) (P29762 whole entry): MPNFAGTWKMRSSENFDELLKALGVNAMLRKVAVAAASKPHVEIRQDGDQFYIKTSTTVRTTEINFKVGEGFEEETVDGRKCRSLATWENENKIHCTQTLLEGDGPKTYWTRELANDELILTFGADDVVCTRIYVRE

C=CC(C)=CC=CC(C)=CC=C1C(C)=CCCC1(C)C [AR, Anhydroretinol]
antagonism of 14-HRR ([1]; AR 5×10^-6 M vs 1.3×10^-6 M 14-HRR, FIG. 2B): clear antagonism | antagonism of retinol ([1]; AR 5×10^-6 M vs 3.7×10^-6 M retinol, FIG. 2A): clear antagonism | support of B cell proliferation ([1]; FIG. 2A): nor does it support B cell proliferation | inhibition of B cell cultures ([1]; graded concentrations of fetal calf serum (FIG. 2C) or RBP/retinol complex (data not shown)): strongly inhibitory | ID50 values ([1]; graded concentrations of fetal calf serum or RBP/retinol complex): comparable to those seen in retinol-supplemented cultures | inhibitory dose (ID50) ([1]; serum-free medium supplemented with retinol or 14-HRR): dependent on the agonist concentration | competitive antagonism of retinol or 14-HRR ([1]; serum-free medium with retinol or 14-HRR, FIGS. 2A, 2B): competitive antagonist | growth inhibition of B cell cultures ([1]; ten percent fetal bovine serum containing medium, FIG. 2C): strong growth inhibition | IL-2 release (interleukin-2 (IL-2); supernatants after 18 hours, FIG. 4D): did not interfere with IL-2 release | inhibition by AR, relative sensitivity (DU145): highest sensitivity | inhibition by AR, relative sensitivity (LNcAP): appears to be insensitive | thymidine uptake of cycling thymocytes (Murine thymocytes [2]; AR given 2 days after activation, FIG. 4C): able to reduce the thymidine uptake of cycling thymocytes | inhibition of thymocyte activation (Murine thymocytes [2]; retinol or 14-HRR as cofactor, anti-CD3, FIGS. 4A, 4B): pronounced | Kd ([3]; fluorometric titration, 150 mM NaCl, 0.1 mM DTT, 25 mM HEPES, read-out: dissociation constant RBP): 20 nM | sensitivity to inhibition by AR (murine B cell lymphoma): all proved sensitive to inhibition | dissociation constant CRABP I (binding in words) [4]: no binding | B lymphocyte proliferation (B lymphocyte): block B lymphocyte proliferation | aid to B cell proliferation (B lymphocyte): not to aid B cell proliferation | AR as metabolite of [3H] retinol (SF-9 cells): undetectable | AR as metabolite of [3H] retinol (SF 21 cells): predominant metabolite | activation of resting T lymphocytes (resting T lymphocytes): block B lymphocyte proliferation as well as activation of resting T lymphocytes | metabolism by lymphocytes to retinol or to 14-HRR (lymphocytes [5]): not metabolized | metabolic rate of 14-HRR synthesis (14-HRR synthesis): no change | Kd [6]: 23 nM | CTLL proliferation (CTLL cell line): completely inert | CTLL responsiveness to retinol and AR (CTLL cell line): independent of either retinoid | AR as metabolite of [3H] retinol [7]: also produced AR | sensitivity to inhibition by AR [8]: all proved sensitive to inhibition | inhibition of lymphocyte cultures with 14-HRR as agonist (lymphocytes [9]): reversibly inhibits

CC(C=CC=C(C)C(O)CO)=CC=C1C(C)=CCCC1(C)C (stereo not drawn) [Compound 14-HRR, 14-hydroxy-4,14-retro-retinol]
IL-2 production (interleukin-2 (IL-2)): unaffected | Kd [3]: 120 nM | activation of resting thymocytes, cofactor dependence (Murine thymocytes [10]): dependent on retinoid cofactors | dissociation constant CRABP I (binding in words) [4]: no binding | growth dependence on retinol and 14-HRR [11]: grow independently | binding to CRBP [6]: does not bind to CRBP with appreciable affinity | dissociation constant CRBP I (binding in words) ([6]; no binding = no significant binding could be detected): no binding | CTLL proliferation (CTLL cell line): completely inert | IL-2 receptor expression (IL-2 receptor): unaffected

CC1=C(/C=C/C(C)=C/C=C/C(C)=C/CO)C(C)(C)CCC1 [retinol, all-trans retinol]
IL-2 production (interleukin-2 (IL-2)): unaffected | rescue of Jurkat cells on reintroduction of retinol ([12]; after day 6): allows rescue of the cells | dependence of Jurkat cells on retinol ([12]; serum-free medium ITLB, 4×10^-6 M retinol): retinol-dependent | activation of resting thymocytes, cofactor dependence (Murine thymocytes [10]): dependent on retinoid cofactors | dissociation constant CRABP I (binding in words) [4]: no binding | growth dependence on retinol and 14-HRR [11]: grow independently | Kd [6]: 13 nM | CTLL proliferation (CTLL cell line): completely inert | CTLL responsiveness to retinol and AR (CTLL cell line): independent of either retinoid | IL-2 receptor expression (IL-2 receptor): unaffected
